This note sets out measurements from patent US20240398784A1, “C-LINKED ISOQUINOLINE AMIDES AS LRRK2 INHIBITORS, PHARMACEUTICAL COMPOSITIONS, AND USES THEREOF” (Merck Sharp & Dohme LLC, priority 2021, published 2024).

Sequence of LRRK2 G2019S (Q5S007 whole entry G2019S): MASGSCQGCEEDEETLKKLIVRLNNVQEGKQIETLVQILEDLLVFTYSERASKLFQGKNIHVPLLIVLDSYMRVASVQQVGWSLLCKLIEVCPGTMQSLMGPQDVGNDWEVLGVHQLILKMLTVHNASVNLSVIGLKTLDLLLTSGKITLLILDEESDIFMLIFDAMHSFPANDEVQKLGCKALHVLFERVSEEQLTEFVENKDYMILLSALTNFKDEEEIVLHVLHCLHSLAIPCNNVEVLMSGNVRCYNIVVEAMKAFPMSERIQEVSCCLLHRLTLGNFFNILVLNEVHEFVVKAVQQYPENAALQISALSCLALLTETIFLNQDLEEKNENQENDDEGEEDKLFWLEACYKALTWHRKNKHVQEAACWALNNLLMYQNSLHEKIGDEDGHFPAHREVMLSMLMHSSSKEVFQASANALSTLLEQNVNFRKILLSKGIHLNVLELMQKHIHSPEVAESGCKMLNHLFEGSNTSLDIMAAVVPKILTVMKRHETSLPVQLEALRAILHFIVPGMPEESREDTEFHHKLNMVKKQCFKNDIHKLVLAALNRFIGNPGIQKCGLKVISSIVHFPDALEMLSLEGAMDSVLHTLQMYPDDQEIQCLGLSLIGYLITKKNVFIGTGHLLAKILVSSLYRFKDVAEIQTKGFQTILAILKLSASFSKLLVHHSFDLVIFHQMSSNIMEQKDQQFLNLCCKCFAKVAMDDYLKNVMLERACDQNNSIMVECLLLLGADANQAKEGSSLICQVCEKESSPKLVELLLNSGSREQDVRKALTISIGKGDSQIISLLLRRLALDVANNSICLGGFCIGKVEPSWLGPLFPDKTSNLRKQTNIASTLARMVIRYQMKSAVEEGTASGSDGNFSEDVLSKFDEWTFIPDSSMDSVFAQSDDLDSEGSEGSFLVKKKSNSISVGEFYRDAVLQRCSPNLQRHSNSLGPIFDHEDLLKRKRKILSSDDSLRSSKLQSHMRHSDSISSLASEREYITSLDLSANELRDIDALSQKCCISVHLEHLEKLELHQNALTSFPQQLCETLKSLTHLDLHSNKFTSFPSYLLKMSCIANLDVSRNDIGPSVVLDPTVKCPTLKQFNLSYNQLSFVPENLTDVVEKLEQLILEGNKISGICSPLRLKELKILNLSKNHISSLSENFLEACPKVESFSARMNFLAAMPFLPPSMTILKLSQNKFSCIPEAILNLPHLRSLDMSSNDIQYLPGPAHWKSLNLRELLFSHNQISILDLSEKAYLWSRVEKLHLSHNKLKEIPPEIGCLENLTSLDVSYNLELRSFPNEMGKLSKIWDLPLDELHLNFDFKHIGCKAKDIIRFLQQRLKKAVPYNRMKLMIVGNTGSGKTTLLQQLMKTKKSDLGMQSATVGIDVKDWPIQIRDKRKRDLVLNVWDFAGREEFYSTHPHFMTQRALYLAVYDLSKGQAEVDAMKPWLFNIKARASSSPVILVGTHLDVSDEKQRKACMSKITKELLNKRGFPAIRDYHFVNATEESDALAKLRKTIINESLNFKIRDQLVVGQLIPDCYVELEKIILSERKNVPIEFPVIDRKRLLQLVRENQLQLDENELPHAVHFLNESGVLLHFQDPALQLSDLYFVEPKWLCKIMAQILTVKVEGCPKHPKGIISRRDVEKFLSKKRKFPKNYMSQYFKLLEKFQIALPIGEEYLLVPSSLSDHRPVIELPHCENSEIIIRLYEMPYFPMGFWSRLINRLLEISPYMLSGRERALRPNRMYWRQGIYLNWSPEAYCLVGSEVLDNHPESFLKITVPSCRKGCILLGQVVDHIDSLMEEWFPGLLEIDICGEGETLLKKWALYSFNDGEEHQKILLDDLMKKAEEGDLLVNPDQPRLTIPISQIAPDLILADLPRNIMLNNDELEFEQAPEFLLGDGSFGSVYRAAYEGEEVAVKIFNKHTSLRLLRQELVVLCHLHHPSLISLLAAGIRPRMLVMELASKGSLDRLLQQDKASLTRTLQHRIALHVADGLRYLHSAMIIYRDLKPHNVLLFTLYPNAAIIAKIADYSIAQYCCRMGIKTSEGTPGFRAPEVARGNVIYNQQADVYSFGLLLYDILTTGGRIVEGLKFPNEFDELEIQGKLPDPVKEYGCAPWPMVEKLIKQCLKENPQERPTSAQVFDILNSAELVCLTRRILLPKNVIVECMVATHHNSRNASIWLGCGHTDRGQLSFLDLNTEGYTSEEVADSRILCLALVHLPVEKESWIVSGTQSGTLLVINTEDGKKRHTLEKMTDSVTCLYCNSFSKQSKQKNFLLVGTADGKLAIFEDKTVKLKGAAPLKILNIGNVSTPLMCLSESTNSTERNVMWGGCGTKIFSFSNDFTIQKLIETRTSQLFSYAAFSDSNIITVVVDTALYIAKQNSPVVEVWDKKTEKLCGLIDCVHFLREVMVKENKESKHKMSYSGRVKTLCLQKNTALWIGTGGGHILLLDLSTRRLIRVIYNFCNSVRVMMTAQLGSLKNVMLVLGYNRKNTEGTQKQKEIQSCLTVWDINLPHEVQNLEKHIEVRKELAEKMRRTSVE

This assay has as its target LRRK2 G2019S (Homo sapiens, UniProt Q5S007, G2019S). Put plainly: LRRK2 G2019S Km ATP LanthaScreen assay. It counts as biochemical. The settings on record: read-out: LRRK2 pIC50 (converted).
With `CC1(C)CCC(C(=O)Nc2cc3cc(C4CCC(N5CCC(F)C5)CC4)c(Cl)cc3cn2)CO1` (single isomer, unassigned) [Ex-5.24, N-(7-chloro-6-(4-(3-fluoropyrrolidin-1-yl)cyclohexyl)isoquinolin-3-yl)-6,6-dimethyltetrahydro-2H-pyran-3-carboxamide], the IC50 was 4270 nM.

As for `Cn1cc(C2CC2C(=O)Nc2cc3cc(C4CC(N5CC(F)C5)C4)c(Cl)cc3cn2)cn1` (single isomer, unassigned) [Ex-5.25, N-(7-chloro-6-(3-(3-fluoroazetidin-1-yl)cyclobutyl)isoquinolin-3-yl)-2-(1-methyl-1H-pyrazol-4-yl)cyclopropane-1-carboxamide], the IC50 is 0.575 nM.

With `Cn1cc(C2CC2C(=O)Nc2cc3cc(C4CC(N5CC(F)C5)C4)c(Cl)cc3cn2)cn1` (single isomer, unassigned) [Ex-5.26, N-(7-chloro-6-(3-(3-fluoroazetidin-1-yl)cyclobutyl)isoquinolin-3-yl)-2-(1-methyl-1H-pyrazol-4-yl)cyclopropane-1-carboxamide], the IC50 was 2.34 nM.

In the case of `CC1(N2CCC(c3cc4cc(NC(=O)C5CC56CCOC6)ncc4cc3Cl)CC2)COCC1F` (single isomer, unassigned) [Ex-6.1, (R or S)-N-(7-chloro-6-(1-((3R,4R or 3S,4S)-4-fluoro-3-methyltetrahydrofuran-3-yl)piperidin-4-yl)isoquinolin-3-yl)-5-oxaspiro [2.4] heptane-1-carboxamide], the IC50 was 42.7 nM.

With `CC1(N2CCC(c3cc4cc(NC(=O)C5CC56CCOC6)ncc4cc3Cl)CC2)COCC1F` (single isomer, unassigned) [Ex-6.2, (R or S)-N-(7-chloro-6-(1-((3R,4R or 3S,4S)-4-fluoro-3-methyltetrahydrofuran-3-yl)piperidin-4-yl)isoquinolin-3-yl)-5-oxaspiro [2.4] heptane-1-carboxamide], the IC50 was 112 nM.

For `CC1(N2CCC(c3cc4cc(NC(=O)C5CC56CCOC6)ncc4cc3Cl)CC2)COCC1F` (single isomer, unassigned) [Ex-6.3, (R or S)-N-(7-chloro-6-(1-((3R,4R or 3S,4S)-4-fluoro-3-methyltetrahydrofuran-3-yl)piperidin-4-yl)isoquinolin-3-yl)-5-oxaspiro [2.4] heptane-1-carboxamide], the IC50 is 0.0813 nM.

Take `CC1(N2CCC(c3cc4cc(NC(=O)C5CC56CCOC6)ncc4cc3Cl)CC2)COCC1F` (single isomer, unassigned) [Ex-6.4, (R or S)-N-(7-chloro-6-(1-((3R,4R or 3S,4S)-4-fluoro-3-methyltetrahydrofuran-3-yl)piperidin-4-yl)isoquinolin-3-yl)-5-oxaspiro [2.4] heptane-1-carboxamide]: the IC50 was 141 nM.

As to `CC1(N2CCC(c3cc4cc(NC(=O)C5CC56CCOC6)ncc4cc3Cl)CC2)COCC1F` (single isomer, unassigned) [Ex-6.5, (R or S)-N-(7-chloro-6-(1-((3R,4R or 3S,4S)-4-fluoro-3-methyltetrahydrofuran-3-yl)piperidin-4-yl)isoquinolin-3-yl)-5-oxaspiro [2.4] heptane-1-carboxamide], the IC50 is 0.537 nM.

As for `CC1(N2CCC(c3cc4cc(NC(=O)C5CC56CCOC6)ncc4cc3Cl)CC2)COCC1F` (single isomer, unassigned) [Ex-6.6, (R or S)-N-(7-chloro-6-(1-((3R,4R or 3S,4S)-4-fluoro-3-methyltetrahydrofuran-3-yl)piperidin-4-yl)isoquinolin-3-yl)-5-oxaspiro [2.4] heptane-1-carboxamide], the IC50 was 1.17 nM.

As for `CC1(N2CCC(c3cc4cc(NC(=O)C5CC56CCOC6)ncc4cc3Cl)CC2)COCC1F` (single isomer, unassigned) [Ex-6.7, (R or S)-N-(7-chloro-6-(1-((3R,4R or 3S,4S)-4-fluoro-3-methyltetrahydrofuran-3-yl)piperidin-4-yl)isoquinolin-3-yl)-5-oxaspiro [2.4] heptane-1-carboxamide], the IC50 is 1.82 nM.

For the molecule `CC1(N2CCC(c3cc4cc(NC(=O)C5CC56CCOC6)ncc4cc3Cl)CC2)COCC1F` (single isomer, unassigned) [Ex-6.8, (R or S)-N-(7-chloro-6-(1-((3R,4R or 3S,4S)-4-fluoro-3-methyltetrahydrofuran-3-yl)piperidin-4-yl)isoquinolin-3-yl)-5-oxaspiro [2.4] heptane-1-carboxamide], the IC50 was 34.7 nM.

Turning to `CC1COCC1(C)N1CCC(c2cc3cc(NC(=O)C4CC45CCOCC5)ncc3cc2Cl)CC1` (single isomer, unassigned) [Ex-6.9, N-(7-chloro-6-(1-(3,4-dimethyltetrahydrofuran-3-yl)piperidin-4-yl)isoquinolin-3-yl)-6-oxaspiro[2.5]octane-1-carboxamide], the IC50 was 0.813 nM.

On to `CC1COCC1(C)N1CCC(c2cc3cc(NC(=O)C4CC45CCOCC5)ncc3cc2Cl)CC1` (single isomer, unassigned) [Ex-6.10, N-(7-chloro-6-(1-(3,4-dimethyltetrahydrofuran-3-yl)piperidin-4-yl)isoquinolin-3-yl)-6-oxaspiro[2.5]octane-1-carboxamide], for which the IC50 was 110 nM.

In the case of `CC1(N2CCC(c3cc4cc(NC(=O)C5C6COCC65)ncc4cc3Cl)CC2)CCOC1` (single isomer, unassigned) [Ex-6.11, N-(7-chloro-6-(1-(3-methyltetrahydrofuran-3-yl)piperidin-4-yl)isoquinolin-3-yl)-3-oxabicyclo[3.1.0]hexane-6-carboxamide], the IC50 was 1.95 nM.

Regarding `CC1(N2CCC(c3cc4cc(NC(=O)C5C6COCC65)ncc4cc3Cl)CC2)CCOC1` (single isomer, unassigned) [Ex-6.12, N-(7-chloro-6-(1-(3-methyltetrahydrofuran-3-yl)piperidin-4-yl)isoquinolin-3-yl)-3-oxabicyclo[3.1.0]hexane-6-carboxamide], the IC50 was 8.13 nM.

Regarding `CC(C)(O)C1CC1C(=O)Nc1cc2cc(C3CCN(C4(C)CCOC4)CC3)c(Cl)cc2cn1` (single isomer, unassigned) [Ex-6.13, N-(7-chloro-6-(1-(3-methyltetrahydrofuran-3-yl)piperidin-4-yl)isoquinolin-3-yl)-2-(2-hydroxypropan-2-yl)cyclopropane-1-carboxamide], the IC50 is 5.89 nM.

`CC(C)(O)C1CC1C(=O)Nc1cc2cc(C3CCN(C4(C)CCOC4)CC3)c(Cl)cc2cn1` (single isomer, unassigned) [Ex-6.14, N-(7-chloro-6-(1-(3-methyltetrahydrofuran-3-yl)piperidin-4-yl)isoquinolin-3-yl)-2-(2-hydroxypropan-2-yl)cyclopropane-1-carboxamide]: the IC50 was 2.69 nM.

For the molecule `CC(C)(O)C1CC1C(=O)Nc1cc2cc(C3CCN(C4(C)CCOC4)CC3)c(Cl)cc2cn1` (single isomer, unassigned) [Ex-6.15, N-(7-chloro-6-(1-(3-methyltetrahydrofuran-3-yl)piperidin-4-yl)isoquinolin-3-yl)-2-(2-hydroxypropan-2-yl)cyclopropane-1-carboxamide], the IC50 is 0.115 nM.

Regarding `CC1(N2CCC(c3cc4cc(NC(=O)C5CC56CCOCC6)ncc4cc3Cl)CC2)COC(C2CC2)C1` (single isomer, unassigned) [Ex-6.16, N-(7-chloro-6-(1-(5-cyclopropyl-3-methyltetrahydrofuran-3-yl)piperidin-4-yl)isoquinolin-3-yl)-6-oxaspiro[2.5]octane-1-carboxamide], the IC50 was 0.214 nM.
